Read-outs that look alike come from different tables or passages of the source. Each block holds one compound with its values, some of them ahead of it. Bridge positions count the residues as written; N and C are the ends. Square brackets hold non-standard residues; d marks the D form. Peptide text beside a SMILES is read from it. Pen = CC(C)(S)[C@H](N)C(=O)O; Nle = CCCC[C@H](N)C(=O)O; GABA = NCCCC(=O)O; βAla = NCCC(=O)O
Experiments:
[1] = target: T1, hMC5-R (Homo sapiens, UniProt P33032); assay: Radioligand binding assay, [125I]-NDP-α-MSH competition, CHO-K1 membranes
T1 construct: expressed in transfected cells; host or cells: CHO-K1
T1 sequence (P33032 whole entry): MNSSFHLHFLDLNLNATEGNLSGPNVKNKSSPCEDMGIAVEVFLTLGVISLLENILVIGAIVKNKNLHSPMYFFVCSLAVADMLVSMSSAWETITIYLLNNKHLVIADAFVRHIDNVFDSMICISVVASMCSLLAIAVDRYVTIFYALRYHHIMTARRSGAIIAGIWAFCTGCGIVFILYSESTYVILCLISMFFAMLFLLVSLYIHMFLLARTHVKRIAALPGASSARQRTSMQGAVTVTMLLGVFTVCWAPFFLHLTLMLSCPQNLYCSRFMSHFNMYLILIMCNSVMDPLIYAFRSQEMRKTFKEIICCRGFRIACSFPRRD
Method: (§1) Cellular membranes used for the in vitro receptor binding assays were obtained from transgenic CHO-K1 cells stably expressing hMC-R receptor subtypes 1, 3, 4 or 5. […] The pellets were resuspended in the same buffer and centrifuged at 50,000 g for 10 minutes at approximately 4° C. The washed pellets containing the cellular membranes were stored at approximately −80° C.
(§2) Cell membranes (1-10 μg protein/well) prepared as described above were incubated in 50 mM Tris-HCl at pH 7.4 containing 0.2% bovine serum albumin (BSA), 5 mM MgCl2, 1 mM CaCl2 and 0.1 mg/mL bacitracin, with increasing concentrations of the test compound and 0.1-0.3 nM [^25I]-NDP-α-MSH for approximately 90-120 minutes at approximately 37° C. […] Filters were washed three times with 50 mM Tris-HCl at pH 7.4 at a temperature of approximately 0-4° C. and then assayed for radioactivity using a Packard Topcount® scintillation counter. Binding data were analyzed by computer-assisted non-linear regression analysis (XL fit; IDBS).

[2] = target: T2, hMC3-R (Homo sapiens, UniProt P41968); assay: as above
T2 construct: expressed in transfected cells; host or cells: CHO-K1
T2 sequence (P41968 whole entry): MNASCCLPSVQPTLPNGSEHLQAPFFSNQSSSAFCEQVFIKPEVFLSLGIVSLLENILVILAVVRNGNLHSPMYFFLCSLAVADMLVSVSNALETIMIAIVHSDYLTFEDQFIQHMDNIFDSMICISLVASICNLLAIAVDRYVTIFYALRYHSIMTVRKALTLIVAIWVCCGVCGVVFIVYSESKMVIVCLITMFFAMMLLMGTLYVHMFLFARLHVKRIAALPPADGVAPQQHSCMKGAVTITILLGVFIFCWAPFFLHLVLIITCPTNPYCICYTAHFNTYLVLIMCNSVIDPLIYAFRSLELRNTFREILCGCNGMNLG
Method: as §1, §2

[3] = target: T3, hMC1-R (Homo sapiens, UniProt Q01726); assay: as above; conditions: Table 5
T3 construct: expressed in transfected cells; host or cells: CHO-K1
T3 sequence (Q01726 whole entry): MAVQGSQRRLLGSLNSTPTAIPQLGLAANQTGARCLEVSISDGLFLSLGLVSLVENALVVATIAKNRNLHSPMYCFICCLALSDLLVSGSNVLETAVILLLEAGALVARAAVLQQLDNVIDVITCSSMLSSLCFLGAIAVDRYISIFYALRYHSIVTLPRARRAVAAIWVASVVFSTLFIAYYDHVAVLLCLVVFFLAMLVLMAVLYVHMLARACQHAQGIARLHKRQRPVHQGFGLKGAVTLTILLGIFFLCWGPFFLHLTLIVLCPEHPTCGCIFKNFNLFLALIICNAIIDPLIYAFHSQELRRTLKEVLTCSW
Method: as §1, §2

[4] = target: T4, hMC4-R (Homo sapiens, UniProt P32245); assay: cyclic AMP bioassay (ECL) in CHO-K1 cells; assay type: cell-based
T4 construct: expressed in transfected cells; host or cells: CHO-K1
T4 sequence (P32245 whole entry): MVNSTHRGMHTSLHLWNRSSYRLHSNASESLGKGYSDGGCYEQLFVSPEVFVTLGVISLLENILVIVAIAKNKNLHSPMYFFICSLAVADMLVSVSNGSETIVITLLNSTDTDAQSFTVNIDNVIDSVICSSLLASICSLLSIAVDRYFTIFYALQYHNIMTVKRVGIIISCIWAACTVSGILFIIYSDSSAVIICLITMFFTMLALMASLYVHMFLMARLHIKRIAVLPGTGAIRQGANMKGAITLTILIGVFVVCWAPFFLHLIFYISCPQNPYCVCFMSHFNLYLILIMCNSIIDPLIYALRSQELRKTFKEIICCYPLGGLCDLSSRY
Method: (§3) Intracellular cyclic AMP (cAMP) levels were determined by an electrochemiluminescence (ECL) assay (Meso Scale Discovery®, Gaithersburg, Md.; referred to hereinafter as MSD). […] Transgenic CHO-K1 cells stably expressing hMC receptor subtypes 1, 3, 4 or 5 were dispensed at a density of approximately 7,000 cells/well in 384-well Multi-Array®plates (MSD) containing integrated carbon electrodes and coated with anti-cAMP antibody. Increasing concentrations of the test compounds were added and the cells were incubated for approximately 40 minutes at approximately 37° C. […] At the end of the second incubation period read buffer (Tris-buffered solution containing an ECL co-reactant and Triton X-100 at ph 7.8) was added and the cAMP levels in the cell lysates were immediately determined by ECL detection with a Sector Imager 6000 Reader® (MSD). Data were analyzed using a computer-assisted non-linear regression analysis (XL fit; IDBS) and reported as either an EC50 value or a Kb value.
(§4) The Kb value reflects the potency of an antagonist and is determined by Schild analysis. In brief, concentration-response curves of an agonist are carried out in the presence of increasing concentrations of an antagonist. […] It is calculated by extrapolating the line on a Schild plot to zero on the y-axis.

[5] = target: T3, hMC1-R; assay: cyclic AMP bioassay (ECL) in CHO-K1 cells; assay type: cell-based
Method: as §3, §4

[6] = target: T2, hMC3-R; assay: cyclic AMP bioassay (ECL) in CHO-K1 cells; assay type: cell-based
[7] = target: T1, hMC5-R; assay: cyclic AMP bioassay (ECL) in CHO-K1 cells; assay type: cell-based
[8] = target: T4, hMC4-R; assay: Radioligand binding assay, [125I]-NDP-α-MSH competition, CHO-K1 membranes
Method: as §1, §2

[9] = Table 9A/9B, read-out: EC50 hMC4-R
[10] = Table 9A/9B, read-out: EC50 hMC1-R
[11] = Table 9A/9B, read-out: EC50 hMC3-R
[12] = Table 9A/9B, read-out: EC50 hMC5-R

Compound: CCCC[C@H](NC(C)=O)C(=O)N[C@H]1CSSC(C)(C)[C@@H](C(N)=O)NC(=O)[C@H](Cc2c[nH]c3ccccc23)NC(=O)[C@H](CCCNC(=N)N)NC(=O)[C@@H](Cc2ccccc2)NC(=O)[C@H](Cc2c[nH]cn2)NC(=O)[C@@H](C)NC1=O [Ac-Nle-c(Cys-D-Ala-His-D-Phe-Arg-Trp-Pen)-NH2]
Ki ([2]; Ki hMC3-R, Table 5): 22.8 nM | Ki ([3]; Ki hMC1-R): 29.1 nM | EC50 [4]: 0.183 nM | EC50 [5]: 14.3 nM | EC50 [6]: 2.03 nM | EC50 [7]: 2240 nM

Compound: CC(=O)N[C@H]1CSSC[C@@H](C(=O)N2CCC[C@H]2C(=O)N2CCC[C@H]2C(=O)N[C@@H](CCCCN)C(=O)N[C@@H](CC(=O)O)C(=O)NCCC(=O)N[C@@H](CCCNC(=N)N)C(=O)N[C@@H](CCCNC(=N)N)C(=O)N[C@@H](CCCCN)C(=O)N[C@@H](CCCNC(=N)N)C(=O)N[C@@H](CCCNC(=N)N)C(=O)N[C@@H](CCC(N)=O)C(=O)N[C@@H](CCCNC(=N)N)C(=O)N[C@@H](CCCNC(=N)N)C(=O)N[C@@H](CCCNC(=N)N)C(N)=O)NC(=O)[C@H](C)NC(=O)[C@H](Cc2csc3ccccc23)NC(=O)[C@H](CCCNC(=N)N)NC(=O)[C@@H](Cc2ccc3ccccc3c2)NC(=O)[C@H](Cc2c[nH]cn2)NC(=O)[C@H](CCC(=O)O)NC1=O
Ki ([8]; Ki hMC4-R, Table 6): 0.442 nM | Ki ([1]; Ki hMC5-R, Table 6): 15.5 nM | Kb [4]: 10 nM | EC50 [5]: 232 nM | EC50 [7]: 250 nM

Compound: CC(=O)N[C@H]1CSSC[C@@H](C(=O)N2CCC[C@H]2C(=O)N2CCC[C@H]2C(=O)N[C@@H](CCCCN)C(=O)N[C@@H](CC(=O)O)C(=O)NCCC(=O)N[C@@H](Cc2ccc(O)cc2)C(=O)NCC(=O)N[C@@H](CCCNC(=N)N)C(=O)N[C@@H](CCCCN)C(=O)N[C@@H](CCCNC(=N)N)C(=O)N[C@@H](CCCNC(=N)N)C(=O)N[C@@H](CCCNC(=N)N)C(=O)N[C@@H](CCC(N)=O)C(=O)N[C@@H](CCCNC(=N)N)C(=O)N[C@@H](CCCNC(=N)N)C(=O)N[C@@H](CCCNC(=N)N)C(N)=O)NC(=O)[C@H](C)NC(=O)[C@H](Cc2csc3ccccc23)NC(=O)[C@H](CCCNC(=N)N)NC(=O)[C@@H](Cc2ccc3ccccc3c2)NC(=O)[C@H](Cc2c[nH]cn2)NC(=O)[C@H](CCC(=O)O)NC1=O
Ki ([2]; Ki hMC3-R, Table 6): 1.12 nM | Kb [4]: 9.45 nM | EC50 [5]: 11.2 nM | Kb [6]: 52.1 nM | EC50 [7]: 95.7 nM

The remaining lines, values ahead:

Ki ([1]; Table 5, read-out: Ki hMC5-R): 2.9 nM | Ki ([2]; Table 5, read-out: Ki hMC3-R): 9.3 nM | Ki ([3]; read-out: Ki hMC1-R): 0.05 nM | EC50 [4, 9]: 0.11 nM | EC50 [5, 10]: 0.35 nM | EC50 [6, 11]: 1.1 nM | EC50 [7, 12]: 0.37 nM
Compound: CCOc1ccc(C[C@H]2NC(=O)[C@H](Cc3c[nH]cn3)NC(=O)[C@@H](NC(=O)[C@H](N)Cc3ccccc3)CSSC[C@H](C(=O)N[C@H](C(N)=O)[C@@H](C)O)NC(=O)CCNC(=O)[C@H](Cc3c[nH]c4ccccc34)NC(=O)[C@H](CCCNC(=N)N)NC2=O)cc1 [D-Phe-c(Cys-His-D-(Et)Tyr-Arg-Trp-β-Ala-D-Cys)-Thr-NH2] (H-[dF]CH[dY](Et)RW[βAla][dC]T-NH2; disulfide 2-8)

Ki ([8]; Table 5, read-out: Ki KMC4-R): 5.89 nM | Ki ([1]; Table 5, read-out: Ki hMC5-R): 2.56 nM | Ki ([2]; Table 5, read-out: Ki hMC3-R): 86.1 nM | Ki ([3]; read-out: Ki hMC1-R): 0.537 nM
Compound: CCCC[C@H](NC(C)=O)C(=O)N[C@@H]1C(=O)N[C@@H](Cc2c[nH]cn2)C(=O)N[C@H](Cc2ccccc2)C(=O)N[C@@H](CCCNC(=N)N)C(=O)N[C@@H](Cc2c[nH]c3ccccc23)C(=O)NCCCC(=O)N[C@H](C(N)=O)CSSC1(C)C [Ac-Nle-c(Pen-His-D-Phe-Arg-Trp-Gaba-Cys)-NH2] (Ac-[Nle][Pen]H[dF]RW[GABA]C-NH2; disulfide 2-8 (inferred))

Ki ([1]; Table 5, read-out: Ki hMC5-R): 92.6 nM | Ki ([2]; Table 5, read-out: Ki hMC3-R): 151 nM | Ki ([3]; read-out: Ki hMC1-R): 21.1 nM
Compound: CCCC[C@H](NC(C)=O)C(=O)N[C@H]1CSSC[C@@H](C(N)=O)NC(=O)CCCNC(=O)[C@H](Cc2c[nH]c3ccccc23)NC(=O)[C@H](CCCNC(=N)N)NC(=O)[C@@H](Cc2ccccc2)NC(=O)[C@H](Cc2cccnc2)NC1=O [Ac-Nle-c(Cys-3-Pal-D-Phe-Arg-Trp-Gaba-Cys)-NH2]

Ki ([8]; Table 5, read-out: Ki KMC4-R): 1.49 nM | EC50 [4, 9]: 0.0949 nM | EC50 [5, 10]: 3.26 nM | EC50 [6, 11]: 0.189 nM | EC50 [7, 12]: 30.2 nM
Compound: CC(=O)N[C@@H](CC1CCCCC1)C(=O)N[C@H]1CC(=O)NCCCC[C@@H](C(N)=O)NC(=O)CCCNC(=O)[C@H](Cc2c[nH]c3ccccc23)NC(=O)[C@H](CCCNC(=N)N)NC(=O)[C@@H](Cc2ccccc2)NC(=O)[C@H](Cc2c[nH]cn2)NC1=O [Ac-Cha-c(Asp-His-D-Phe-Arg-Trp-Gaba-Lys)-NH2]

Reference: patent US20120135923A1, “Use of Melanocortins to Treat Dyslipidemia” (IPSEN PHARMA, S.A.S., priority 2009, published 2012)
